Reference: patent US20220071961A1, “Dosing Regimen of Bicyclic Substituted Pyrazolone Azo Derivative” (Jiangsu Hengrui Medicine CO., LTD., priority 2019, published 2022)
Where two headings read alike, the source gives them in different places.

Test: Effect of different intervals between administration and a meal on pharmacokinetic parameters (three-period crossover, single oral dose)
Type: in vivo, human
Settings: single oral 7.5 mg; for AUC(0-t) / AUC / Cmax / MRT / Tmax / Vd/F / half-life: male, human, plasma, po, 7.5 mg; for MRT: read-out: MRT Geomean (% CVb); for Tmax: read-out: Tmax Median; for Vd/F: read-out: Vz/F Geomean (% CVb)
Description: Embodiment 1: Study on an effect of different intervals between the administration and a meal on pharmacokinetic parameters of a compound represented by Formula I
Diethanolamine salt tablets of the compound represented by Formula I, with specifications of 2.5 mg/table and 5 mg/tablet.
15 healthy adult male subjects were recruited for the trial. They were randomly divided into three trial groups which correspond to three dosing sequences, i.e. ABC, BCA and CAB. A cleaning period is 10 days.
Group A: every subject orally took the test products (one T1: 2.5 mg/tablet and one T2: 5 mg/tablet) once on an empty stomach with 240 mL of room temperature water on the morning of the test. […] They were not allowed to drink water within 1 h before administration and 1 h after administration, but were allowed to drink water as needed for the rest time.
(§1) Group B: every subject orally took the test products (one T1: 2.5 mg/tablet and one T2: 5 mg/tablet) once on an empty stomach with 240 mL of room temperature water on the morning of the test. They ate high-fat and high-calorie standard meals 1 h after administration, needed to stagger the timing of the breakfast and the blood sampling, and needed to finish the breakfast within 30 min. They were not allowed to drink water within 1 h before administration and 1 h after administration, but were allowed to drink water as needed for the rest time.
as §1, with “Group C:” for “Group B:”, “meals 2” for “meals 1”
The high-fat meal: calories: 800 to 1,000 kcal, composed of 150 kcal of protein, 250 kcal of carbohydrates and 500 to 600 kcal of fats, wherein about 50% of the calories come from the fats. The ingredients and proportions of the standard meals needed to be consistent in each test period. The specific administration sequences are shown in a table below. An effect of food on the medicine was analyzed by sampling blood at fixed time points before and after administration and measuring vital signs.
In the test, there were Group A (without a breakfast after administration), Group B (with a high-fat and high-calorie standard meal 1 h after administration) and Group C (with a high-fat and high-calorie standard meal 2 h after administration) which correspond to threes administration sequences, i.e. ABC, BCA and CAB. A non-compartmental model (NCA) of WinNonlin 7.0 version was used to calculate PK parameters according to the actual sampling time, and software of SAS 9.4 version was used to list and make descriptive statistical analysis on the PK parameters. Results of descriptive statistical analysis of the PK parameters of the compound represented by Formula I of the subjects in the groups (Group A, Group B and Group C) with different intervals between the administration and a meal are shown in Table 2.
A mixed-effects model was used to perform analysis of variance (ANOVA) on the PK parameters (Cmax, AUC0-t and AUC0-τ), which are subjected to natural log conversion, of the subjects in the groups with different intervals between administration and a meal by using the software of SAS 9.4 version.

[1] = Group B vs Group A (meal 1 h after administration vs no food)
[2] = Group B vs Group C (meal 1 h vs meal 2 h after administration)
[3] = Group C vs Group A (meal 2 h after administration vs no food)
[4] = food 1 h after administration relative to food 2 h after administration
[5] = food 1 h after administration relative to no food after administration
[6] = food 2 h after administration relative to no food after administration
[7] = Group A, without a breakfast after administration, N = 15
[8] = Group B, high-fat meal 1 h after administration, N = 14
[9] = Group C, high-fat meal 2 h after administration, N = 14

AUC0-t GeoLSM Ratio [1]: 23.65%
AUC0-ē GeoLSM Ratio [1]: 25.37%
Cmax GeoLSM Ratio [1]: 44.01%
AUC0-t GeoLSM Ratio [2]: 66.10%
AUC0-ē GeoLSM Ratio [2]: 65.76%
Cmax GeoLSM Ratio [2]: 78.12%
AUC0-t GeoLSM Ratio [3]: 35.78%
AUC0-ē GeoLSM Ratio [3]: 38.57%
Cmax GeoLSM Ratio [3]: 56.33%
AUC0-τ reduced by [4]: ~34%
Cmax reduced by [4]: about 22%
AUC0-τ reduced by [5]: ~75%
Cmax reduced by [5]: about 56%
AUC0-τ reduced by [6]: ~61%
Cmax reduced by [6]: about 44%
AUC(0-t) (Group A, no food after administration, n 15, mixed-effects ANOVA, read-out: AUC0-t GeoLSM (geometric least squares mean)): 857 ng·h/mL
AUC (Group A, no food after administration, n 15, mixed-effects ANOVA, read-out: AUC0-ē GeoLSM (geometric least squares mean)): 929 ng·h/mL
Cmax (Group A, no food after administration, n 15, mixed-effects ANOVA, read-out: Cmax GeoLSM (geometric least squares mean)): 35.1 ng/mL
AUC(0-t) (Group A, without a breakfast after administration, N = 15, read-out: AUC0-t Geomean (% CVb)): 857 ng·h/mL
AUC(0-t) (Group A, without a breakfast after administration, N = 15, read-out: AUC0-t Mean SD): 1040 ng·h/mL
AUC (Group A, without a breakfast after administration, N = 15, read-out: AUC0-ē Geomean (% CVb)): 929 ng·h/mL
AUC (Group A, without a breakfast after administration, N = 15, read-out: AUC0-ē Mean SD): 1110 ng·h/mL
Cmax (Group A, without a breakfast after administration, N = 15, read-out: Cmax Geomean (% CVb)): 35.1 ng/mL
Cmax (Group A, without a breakfast after administration, N = 15, read-out: Cmax Mean SD): 39.2 ng/mL
MRT [7]: 32.1 h
Tmax [7]: 7 h
Vd/F [7]: 308 L
half-life (Group A, without a breakfast after administration, N = 15, read-out: t1/2 Geomean (% CVb) (converted)): 26.4 h
half-life (Group A, without a breakfast after administration, N = 15, read-out: t1/2 Mean SD (converted)): 29.3 h
Tmax (Group B, high-fat and high-calorie standard meal 1 h after administration, N = 14): 2 h
AUC(0-t) (Group B, high-fat meal 1 h after administration, N = 14, read-out: AUC0-t Geomean (% CVb)): 202 ng·h/mL
AUC(0-t) (Group B, high-fat meal 1 h after administration, N = 14, read-out: AUC0-t Mean SD): 314 ng·h/mL
AUC (Group B, high-fat meal 1 h after administration, N = 14, read-out: AUC0-ē Geomean (% CVb)): 235 ng·h/mL
AUC (Group B, high-fat meal 1 h after administration, N = 14, read-out: AUC0-ē Mean SD): 347 ng·h/mL
Cmax (Group B, high-fat meal 1 h after administration, N = 14, read-out: Cmax Geomean (% CVb)): 15.4 ng/mL
Cmax (Group B, high-fat meal 1 h after administration, N = 14, read-out: Cmax Mean SD): 21.1 ng/mL
MRT [8]: 17.4 h
Vd/F [8]: 531 L
half-life (Group B, high-fat meal 1 h after administration, N = 14, read-out: t1/2 Geomean (% CVb) (converted)): 11.6 h
half-life (Group B, high-fat meal 1 h after administration, N = 14, read-out: t1/2 Mean SD (converted)): 13.1 h
AUC(0-t) (Group B, meal 1 h after administration, n 14, mixed-effects ANOVA, read-out: AUC0-t GeoLSM (geometric least squares mean)): 203 ng·h/mL
AUC (Group B, meal 1 h after administration, n 14, mixed-effects ANOVA, read-out: AUC0-ē GeoLSM (geometric least squares mean)): 236 ng·h/mL
Cmax (Group B, meal 1 h after administration, n 14, mixed-effects ANOVA, read-out: Cmax GeoLSM (geometric least squares mean)): 15.5 ng/mL
Tmax (Group C, high-fat and high-calorie standard meal 2 h after administration, N = 14): 5.01 h
AUC(0-t) (Group C, high-fat meal 2 h after administration, N = 14, read-out: AUC0-t Geomean (% CVb)): 303 ng·h/mL
AUC(0-t) (Group C, high-fat meal 2 h after administration, N = 14, read-out: AUC0-t Mean SD): 547 ng·h/mL
AUC (Group C, high-fat meal 2 h after administration, N = 14, read-out: AUC0-ē Geomean (% CVb)): 355 ng·h/mL
AUC (Group C, high-fat meal 2 h after administration, N = 14, read-out: AUC0-ē Mean SD): 591 ng·h/mL
Cmax (Group C, high-fat meal 2 h after administration, N = 14, read-out: Cmax Geomean (% CVb)): 19.6 ng/mL
Cmax (Group C, high-fat meal 2 h after administration, N = 14, read-out: Cmax Mean SD): 28.6 ng/mL
MRT [9]: 21.4 h
Vd/F [9]: 460 L
half-life (Group C, high-fat meal 2 h after administration, N = 14, read-out: t1/2 Geomean (% CVb) (converted)): 15.1 h
half-life (Group C, high-fat meal 2 h after administration, N = 14, read-out: t1/2 Mean SD (converted)): 18.6 h
AUC(0-t) (Group C, meal 2 h after administration, n 14, mixed-effects ANOVA, read-out: AUC0-t GeoLSM (geometric least squares mean)): 307 ng·h/mL
AUC (Group C, meal 2 h after administration, n 14, mixed-effects ANOVA, read-out: AUC0-ē GeoLSM (geometric least squares mean)): 358 ng·h/mL
Cmax (Group C, meal 2 h after administration, n 14, mixed-effects ANOVA, read-out: Cmax GeoLSM (geometric least squares mean)): 19.8 ng/mL
% AUCex Geomean (% CVb) [7]: 6.62%
CL/F Geomean (% CVb) [7]: 8.0740 L/h
CL/F Mean SD [7]: 10.4506 L/h
≅z Geomean (% CVb) [7]: 0.0263 h⁻¹
% AUCex Geomean (% CVb) [8]: 11.39%
CL/F Geomean (% CVb) [8]: 31.8657 L/h
CL/F Mean SD [8]: 52.4396 L/h
≅z Geomean (% CVb) [8]: 0.0600 h⁻¹
% AUCex Geomean (% CVb) [9]: 10.57%
CL/F Geomean (% CVb) [9]: 21.1107 L/h
CL/F Mean SD [9]: 42.1126 L/h
≅z Geomean (% CVb) [9]: 0.0459 h⁻¹
SMILES: CC1=NN(c2ccc3c(c2)CCCC3)C(=O)/C1=N\Nc1cccc(-c2ccc(C(=O)O)o2)c1O [compound represented by Formula I]
